# Assay results published in patent US20200375929A1, “METHODS AND COMPOSITIONS FOR THE TREATMENT OF DISEASES ASSOCIATED WITH CANCER, INFLAMMATION, OR IMMUNE RESPONSE” (Washington University, priority 2017, published 2020).
# Entries after “also recorded” stand apart in the source; their conditions may differ.
# How the values were obtained:
# [1] = system: Nrf2; test: Nrf2 response in BMDMs (western blot, target genes); format: cell-based, mouse; conditions: 12 h treatment
# Method: (§1) BMDM were prepared from 6- to 12-week-old mice as described 1 and cultured in RMPI-1640 medium supplemented with 10% fetal bovine serum (FBS), 2 mM L-glutamine, and 100 U/mL penicillin-streptomycin and mouse recombinant M-CSF ([…], Peprotech). For experiments, cells were seeded at concentration 10^6 cells/mL in tissue culture plates of various formats. The cells were treated with DI (250 μM (unless stated otherwise), cat #592498, Sigma), DMF (50 μM (unless stated otherwise), cat #242926, Sigma), 3-(ethoxycarbonyl)but-3-enoic acid (3MI, 5 μM, Aris Pharmaceuticals Inc.), 4-ethoxy-2-methylene-4-oxobutanoic acid (MI, Aris Pharmaceuticals Inc.) for 12 h and activated with lipopolysaccharide (LPS; 100 ng/mL; E. coli 0111:B4, Sigma) for 1 h or as indicated. In some experiments cells were stimulated with combination of LPS (20 ng/mL) and IFN-γ (50 ng/mL; Peprotech). In some experiments cells were treated with α-tocopherol (AT, 10 μM; Sigma), MitoTEMPO (MT, 500 μM; Sigma), N-acetylcysteine (NAC, 1 mM, Sigma), ethylester of GSH (EtGSH; 1 mM, Santa Cruz) or buthionene sulfoximine (BSO, 500 μM, Sigma) alone or in combination with DI for 12 h. […]
# (§2) Cells were lysed in RIPA Lysis Buffer System (Santa Cruz) and heat-denatured at 95° C. for 5 min in reducing sample buffer (BioRad). […] Non-specific binding was blocked with 5% skim milk (or 5% BSA when phospho-proteins were analyzed), and membranes were probed with primary antibodies specific to Nrf2 (#12721), HO-1 (#70081), IκBζ (mouse specific, #93726), IκBζ(#9244), ATF3 (#D2Y5W), IRAK1 (#4504; sensitivity of IRAK1 detection diminishes upon IRAK1 K63 ubiquitination), phospho-IKK (Ser176/180, #2697), p62/SQSTM1 (#5114), phospho-eIF2α (Ser51, #9721), eIF2α (#5324) from Cell Signaling; GAPDH (sc-25778), IκBα (sc-1643), ATF3 (sc-188), SDHA (sc-166909) from Santa Cruz; NQO1 (ab28947) from Abeam, followed by incubation with anti-rabbit-HRP (1:10,000; sc-2030) or anti-mouse-HRP (1:10,000; sc-2031) from Santa Cruz and Clarity western ECL substrate (Bio-Rad). […]
# [2] = system: STAT3; test: STAT3 activation in LPS-stimulated BMDMs (western blot); format: cell-based, mouse
# Method: as §1, §2
# [3] = system: Ikb-ζ; test: IL17A-mediated Ikb-ζ induction in HaCat cells (western blot); format: cell-based, human; conditions: DI 12 h at non-toxic concentrations, IL17A 100 ng/ml up to 4 h
# [4] = system: IκBζ target genes (Defb4, S100a7a, Lcn2, S100a9); test: IκBζ target gene expression in IL-17A-stimulated mouse keratinocytes (qPCR); format: cell-based; conditions: DI 12 h, IL-17A 4 h
# Method: RNA from cultured cells was isolated using a Total RNA I kit (OMEGA). RNA from mouse ear skin was extracted using RNAeasy mini kit (Qiagen) after tissue disruption with sterile zirconium beads on a MagNA Lyser (Roche). Isolated RNA was reverse transcribed using AffinityScript Multi-Temp reverse transcriptase (Agilent Technologies) according to the manufacturer's protocol. Reactions were performed in 96-well plates using a SYBR Green PCR Master mix (Thermo Fisher Scientific) using a LightCycler® 96 or LightCycler® 480 (Roche Diagnostics). All assays were performed at least in duplicates, and reaction mixtures in 20 μL volumes (96-plate) or 10 μL volumes (384-plate) were processed under the following cycling conditions: initial 10 min denaturation at 95° C., followed by 40 cycles at 95° C. for 10 s, 60° C. for 1 min. Threshold cycle (CT) values for each sample were determined by automated threshold analysis. Expression levels of all mRNAs were normalized to reference gene Actb in BMDMs or to Rpl19 in mouse keratinocytes and tissue samples; to ACTB in human blood monocytes or RPLP0 in human keratinocytes. The relative increase in the expression level of a gene was normalized to the level of expression in unstimulated control cells in each experiment. IκBζ-dependent genes selected for analysis in macrophages were previously published. […]
# [5] = system: HBL1 cells line (ABC); test: DLBCL cell viability, resazurin assay, ABC subtype; format: cell-based; conditions: HBL1, 4 days, refreshed daily; DI 125-250 μM
# [6] = target: T1, SDH (Mus musculus, UniProt Q8K2B3); test: SDH activity in mouse heart and liver; format: in vivo; conditions: daily DI administration i.p.
# T1 construct: from tissue; host or cells: mitochondria isolated from mouse heart and liver
# T1 sequence (Q8K2B3 43-664): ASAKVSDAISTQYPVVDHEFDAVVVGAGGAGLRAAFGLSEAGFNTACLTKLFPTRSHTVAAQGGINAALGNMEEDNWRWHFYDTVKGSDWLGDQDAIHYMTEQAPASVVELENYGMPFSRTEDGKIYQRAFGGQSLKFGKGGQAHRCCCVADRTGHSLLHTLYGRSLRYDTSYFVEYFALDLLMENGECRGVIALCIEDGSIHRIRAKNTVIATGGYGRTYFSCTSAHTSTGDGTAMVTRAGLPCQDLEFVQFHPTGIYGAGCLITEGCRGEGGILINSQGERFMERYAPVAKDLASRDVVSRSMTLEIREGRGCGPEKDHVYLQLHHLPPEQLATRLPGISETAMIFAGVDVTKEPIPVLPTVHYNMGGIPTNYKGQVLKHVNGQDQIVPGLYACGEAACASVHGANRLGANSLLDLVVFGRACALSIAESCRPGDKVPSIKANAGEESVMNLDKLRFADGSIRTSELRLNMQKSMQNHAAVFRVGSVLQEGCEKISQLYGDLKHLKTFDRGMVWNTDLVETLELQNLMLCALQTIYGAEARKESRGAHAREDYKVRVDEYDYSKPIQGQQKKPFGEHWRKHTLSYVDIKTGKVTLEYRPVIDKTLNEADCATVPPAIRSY
# T1 sequence (Q9CQA3 31-282 partner): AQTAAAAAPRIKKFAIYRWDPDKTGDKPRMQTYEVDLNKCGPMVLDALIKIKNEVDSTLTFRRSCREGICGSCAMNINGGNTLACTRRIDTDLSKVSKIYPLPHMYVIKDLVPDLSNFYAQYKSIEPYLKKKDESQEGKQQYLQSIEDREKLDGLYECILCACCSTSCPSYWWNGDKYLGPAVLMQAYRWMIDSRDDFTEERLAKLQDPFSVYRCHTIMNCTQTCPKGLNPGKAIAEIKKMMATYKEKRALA
# T1 sequence (Q9CZB0 30-169 partner): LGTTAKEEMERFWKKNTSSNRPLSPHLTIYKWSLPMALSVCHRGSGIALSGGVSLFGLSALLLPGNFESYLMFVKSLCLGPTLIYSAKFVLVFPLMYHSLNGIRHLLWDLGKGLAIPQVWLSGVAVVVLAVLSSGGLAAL
# T1 sequence (Q9CXV1 57-159 partner): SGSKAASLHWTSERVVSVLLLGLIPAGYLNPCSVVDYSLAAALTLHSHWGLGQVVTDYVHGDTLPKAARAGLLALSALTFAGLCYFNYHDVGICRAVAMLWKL
# Method: DI was administered to mice via the intraperitoneal route at 20 mg/500 μL sterile PBS per mouse either once per day for total length of 4 days (DI daily) or every 2 h, 3 times in total (DI overdose). In daily DI administration, last injection was 6 h before the tissue harvest, in DI overdose protocol last injection was 2 h before harvest. Mice were euthanized and heart (50 mg) and liver tissue (200 mg) were harvested, washed in PBS and processed for mitochondria isolation with Mitochondria Isolation Kit for Tissue (#89801, Thermo Scientific) according to manufacturer's instruction. For analysis of mitochondria purity cytoplasmic and mitochondrial fractions were diluted with reducing sample buffer and analyzed by western blot for SDH and GAPDH presence (see western blot analysis section). SDH activity in isolated mitochondria was analyzed using SDH Activity Colorimetric Kit (#MAK197, Sigma). Isolated mitochondria were directly resuspended in SDH Assay Buffer. In parallel, protein concentration in each sample was determined using RC/DC™ Protein Assay (Biorad) and activity was normalized to protein concentration.
structure (smiles),measurement,setting,value
"C=C(CC(=O)OC)C(=O)OC [DI, dimethyl itaconate]","Nrf2 response (Nrf2 protein, target genes)",[1],triggered strong Nrf2 response; also recorded: increased
same,STAT3 activation (Y705 phosphorylation),"[2]; BMDMs, 12 h pretreatment",inhibits STAT3 activation
same,"inhibition of STAT3 activation, Nrf2 KO compared with WT","[2]; Nrf2 KO BMDMs, DI 250 μM 12 h",no differences in extent of inhibition of STAT3 activation
same,IL17A-mediated Ikb-ζ induction,[3],almost completely inhibited
same,expression of IκBζ target genes,[4],downregulated
same,"growth / toxicity, ABC DLBCL",[5],selective toxicity towards ABC
same,SDH activity in heart and liver,[6],did not significantly affect SDH activity
